Measurements from ChEMBL document CHEMBL1201862, “PubChem BioAssay data set” (2004).
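Grown in 96-well plates, cells were treated for 48 hours with each compound at five concentrations. Insufficient inhibition: endpoint recorded as highest concentration tested. GI50 marks 50% less growth.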 Activity calls are given as the source filed them. No stated cut-off is given here; in the data, active = GI50 up to about 1.1 µM and inactive = higher.

Key:
Test in all cases: inhibition of tumour cell growth, NCI panel, 48 h
[1] = test system: 786-0
[2] = test system: CCRF-CEM
[3] = test system: COLO 205
[4] = test system: HCT-15
[5] = test system: IGROV-1
[6] = test system: KM-20L2
[7] = test system: NCI-H226
[8] = test system: NCI-H23
[9] = test system: NCI-H460
[10] = test system: OVCAR-3
[11] = test system: RXF 393
[12] = test system: SF-295
[13] = test system: SK-MEL-5
[14] = test system: U-251
[15] = test system: UACC-62
[16] = test system: SK-OV-3
[17] = test system: DU-145
[18] = test system: MCF7
[19] = test system: MDA-MB-231
[20] = test system: MDA-N

Row | SMILES | GI50 [1] | GI50 [2] | GI50 [3] | GI50 [4] | GI50 [5] | GI50 [6] | GI50 [7] | GI50 [8] | GI50 [9] | GI50 [10] | GI50 [11] | GI50 [12] | GI50 [13] | GI50 [14] | GI50 [15] | GI50 [16] | GI50 [17] | GI50 [18] | GI50 [19] | GI50 [20]
1 | Cc1ccc(C)c(NC(=O)CCc2n[nH]c(=S)o2)c1 | > 100 µM (inactive) | > 100 µM (inactive) | > 100 µM (inactive) | > 100 µM | > 100 µM (inactive) | > 100 µM (inactive) | > 100 µM (inactive) | > 100 µM (inactive) | > 100 µM (inactive) | > 100 µM (inactive) | > 100 µM (inactive) | > 100 µM (inactive) | > 100 µM (inactive) | > 100 µM (inactive) | > 100 µM (inactive) |  |  |  |  | 
2 | Nc1nc(Cl)cc(NCCCCCNc2cc(Cl)nc(N)n2)n1 | > 100 µM (inactive) | 54.1 µM (inactive) | > 100 µM (inactive) | 73.6 µM | > 100 µM (inactive) | > 100 µM (inactive) | 41.4 µM (inactive) | 55.5 µM (inactive) | > 100 µM (inactive) | 42 µM (inactive) | 58.3 µM (inactive) | 29.2 µM (inactive) | 23.5 µM (inactive) | > 100 µM (inactive) | 24 µM (inactive) | > 100 µM (inactive) |  |  |  | 
3 | C=C(COC(C)=O)CC(/C=C(\C)CC/C=C(\C)CO)OC(C)=O (stereo not drawn) | > 100 µM (inactive) | > 100 µM (inactive) | > 100 µM (inactive) | > 100 µM | > 100 µM (inactive) | > 100 µM (inactive) | > 100 µM (inactive) | > 100 µM (inactive) | > 100 µM (inactive) | > 100 µM (inactive) | > 100 µM (inactive) | > 100 µM (inactive) | > 100 µM (inactive) | > 100 µM (inactive) | > 100 µM (inactive) | > 100 µM (inactive) |  |  |  | 
4 | COc1cc2c(c(OC)c1)C(=O)C(=O)C(CC1(C)OCCCO1)=C2 | 9.1 µM (inactive) | 1.91 µM (inactive) | 3.49 µM (inactive) | 6.25 µM | 14.2 µM (inactive) | 17.9 µM (inactive) | 6.17 µM (inactive) | 9.12 µM (inactive) | 13.3 µM (inactive) | 3.8 µM (inactive) | 4.38 µM (inactive) | 13.9 µM (inactive) | 6.05 µM (inactive) | 15.3 µM (inactive) | 7.91 µM (inactive) | 16.6 µM (inactive) |  |  |  | 
5 | O=C(/C=C/c1ccc([N+](=O)[O-])o1)N1CCN(Cc2ccccc2)CC1 | 12.7 µM (inactive) | 2.7 µM (inactive) |  | 4.41 µM | 16.5 µM (inactive) | 10.9 µM (inactive) |  | 5.93 µM (inactive) | 11.2 µM (inactive) | 17.7 µM (inactive) | 11.8 µM (inactive) | 15.3 µM (inactive) | 10.2 µM (inactive) | 14 µM (inactive) | 6.82 µM (inactive) | 43.5 µM (inactive) |  |  |  | 
6 | CC1Cc2c(N)nc(NN)nc2NC1=O (stereo not drawn) | > 100 µM (inactive) | > 100 µM (inactive) | > 100 µM (inactive) | > 100 µM | > 100 µM (inactive) | > 100 µM (inactive) | > 100 µM (inactive) | > 100 µM (inactive) | > 100 µM (inactive) | > 100 µM (inactive) | > 100 µM (inactive) | > 100 µM (inactive) | > 100 µM (inactive) | > 100 µM (inactive) | > 100 µM (inactive) | > 100 µM (inactive) |  |  |  | 
7 | O=C1CC[C@@H](S(=O)(=O)c2ccccc2)[C@H](/C=C/c2ccccc2)O1 | > 100 µM (inactive) | > 100 µM (inactive) | > 100 µM (inactive) | > 100 µM | > 100 µM (inactive) | > 10 µM (inactive) | > 100 µM (inactive) | > 100 µM (inactive) | > 100 µM (inactive) | > 100 µM (inactive) | > 100 µM (inactive) | > 100 µM (inactive) | > 100 µM (inactive) | > 100 µM (inactive) | > 100 µM (inactive) | > 100 µM (inactive) |  |  |  | 
8 | O=C(O)C1=NN=C(C(=O)O)NN1 | > 100 µM (inactive) | > 100 µM (inactive) | > 100 µM (inactive) | > 100 µM | > 100 µM (inactive) | > 100 µM (inactive) | > 100 µM (inactive) | > 100 µM (inactive) | 79.4 µM (inactive) | > 100 µM (inactive) | > 100 µM (inactive) | > 100 µM (inactive) | > 100 µM (inactive) | > 100 µM (inactive) | > 100 µM (inactive) | 37.9 µM (inactive) |  |  |  | 
9 | Nc1nnc(NC(=O)C2=NS(=O)(=O)c3cc(S(N)(=O)=O)c(Cl)cc3N2)[nH]1 | > 100 µM (inactive) | > 100 µM (inactive) | > 100 µM (inactive) | > 100 µM | > 100 µM (inactive) | > 100 µM (inactive) | > 100 µM (inactive) | > 100 µM (inactive) | > 100 µM (inactive) | > 100 µM (inactive) | > 100 µM (inactive) | > 100 µM (inactive) | > 100 µM (inactive) | > 100 µM (inactive) | > 100 µM (inactive) | > 100 µM (inactive) |  |  |  | 
10 | Cn1cc2ccccc2c1-c1nc(F)nc(OCC(=O)[C@H]2CCC3[C@@H]4CCC5=CC(=O)CC[C@]5(C)C4[C@@H](O)C[C@@]32C)n1 (stereo partly drawn) | 16.5 µM (inactive) | 4.31 µM (inactive) | 20 µM (inactive) | 7.18 µM | 7.48 µM (inactive) | 26.1 µM (inactive) | 19.2 µM (inactive) | 7.78 µM (inactive) | 21.7 µM (inactive) | 17 µM (inactive) | 3.92 µM (inactive) | 23.8 µM (inactive) | 20.3 µM (inactive) | 19.4 µM (inactive) | 17.1 µM (inactive) | 19.1 µM (inactive) |  |  |  | 
11 | CC[N+](C)(CC)CC(C)(C)C(=O)/C=C/c1ccc(/C=C/C(=O)C(C)(C)C[N+](C)(CC)CC)cc1 | > 100 µM (inactive) | > 100 µM (inactive) | > 100 µM (inactive) | > 100 µM | > 100 µM (inactive) | > 100 µM (inactive) | > 100 µM (inactive) | > 100 µM (inactive) | > 100 µM (inactive) | > 100 µM (inactive) | > 100 µM (inactive) | > 100 µM (inactive) | > 100 µM (inactive) | > 100 µM (inactive) | > 100 µM (inactive) | > 100 µM (inactive) |  |  |  | 
12 | COc1ccc2[nH]c3c4c(cc(-c5ccccc5)c3c2c1)C(=O)N(c1ccccc1)C4=O | 4.9 µM (inactive) | 4.97 µM (inactive) | 17.7 µM (inactive) | 41.4 µM | 41.5 µM (inactive) | > 100 µM (inactive) | 25.1 µM (inactive) | 31.9 µM (inactive) | 9.73 µM (inactive) | 17.9 µM (inactive) | 13 µM (inactive) | 4.84 µM (inactive) | 12.3 µM (inactive) | 5.98 µM (inactive) | 21.7 µM (inactive) | 26.3 µM (inactive) |  |  |  | 
13 | COc1cccc(NC(=O)CC(=O)N2N=C(n3ccc4ccccc43)CC2c2ccccc2)c1 (stereo not drawn) | > 100 µM (inactive) | > 100 µM (inactive) | > 100 µM (inactive) | > 100 µM | > 100 µM (inactive) | > 100 µM (inactive) |  | > 100 µM (inactive) | > 100 µM (inactive) | > 100 µM (inactive) | > 100 µM (inactive) | > 100 µM (inactive) |  | > 100 µM (inactive) | > 100 µM (inactive) | > 100 µM (inactive) |  |  |  | 
14 | CN(C)CCS/C(=N\c1ccccc1)N1C=COC=C1 | 20.1 µM (inactive) | > 74.6 µM (inactive) | 27.2 µM (inactive) | 20.5 µM | 18 µM (inactive) | 47.1 µM (inactive) | > 46.2 µM (inactive) | 25.8 µM (inactive) | > 68.5 µM (inactive) | 46 µM (inactive) | 26.7 µM (inactive) | 99.8 µM (inactive) | 19.5 µM (inactive) | 48 µM (inactive) | 16 µM (inactive) | > 100 µM (inactive) | 75.9 µM (inactive) | 17.9 µM (inactive) | 20.9 µM (inactive) | 24 µM (inactive)
15 | COc1ccc2occ(CCC(=O)O)c2c1 | > 100 µM (inactive) | > 100 µM (inactive) | > 100 µM (inactive) | > 100 µM | > 100 µM (inactive) | > 100 µM (inactive) |  | > 100 µM (inactive) | > 100 µM (inactive) | > 100 µM (inactive) | > 100 µM (inactive) | > 100 µM (inactive) | > 100 µM (inactive) | > 100 µM (inactive) | > 100 µM (inactive) | > 100 µM (inactive) |  |  |  | 
